According to US20110070232A1, “Combination Therapy with an Antitumor Alkaloid” (Pharma Mar, S.A., priority 2008, published 2011):
pIC50: −log10 of the molar value. Values after ≈ are worked out from the molar mass of the structure shown. Where two headings read alike, the source gives them in different places.

Key:
[1] = test system: AGS human gastric carcinoma cell line; test: IC50 determination, MTS assay, 72 h (Example 1); assay type: cell-based; details: 72 hours of drug exposure
How it was run: (§1)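 Cells are seeded at 10,000 per well and allowed to attach for 24 h, then exposed to compound for 72 h. Viability is read by MTS/PMS, 4 h at 37 °C, with OD at 490 nm, and referenced to a time-0 plate. IC50 is averaged from two to four assays.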

[2] = test system: HGC-27 human gastric carcinoma cell line; test: IC50 determination, MTS assay, 72 h (Example 1); assay type: cell-based; details: 72 hours of drug exposure
How it was run: as §1

[3] = test system: Hs746T human gastric carcinoma cell line; test: IC50 determination, MTS assay, 72 h (Example 1); assay type: cell-based; details: 72 hours of drug exposure
How it was run: as §1

UM-UC-3 tumors = assay type: in vivo, mice; details: mg/kg/day: PM00104 0.90 IV, cisplatin 5 IP, gemcitabine 180 IP, paclitaxel 15 IP
Method: Female athymic nude mice (Harlan Sprague Dawley, Madison, Wis.) were utilized for all experiments. Animals were housed in ventilated rack caging with food and water ad libitum. The mice were acclimated for at least 5 days prior to tumor implantation with a tumor cell suspension.
The tumor model used in these studies was UM-UC-3 cell line, which was obtained from the ATCC (Manassas, Va.).
UM-UC-3 cells were grown in minimum essential medium (Eagle's) supplemented with 10% FBS, 1.5 g/L sodium bicarbonate, 0.1 mM non-essential amino acids, 1 mM sodium pyruvate, and 2 mM L-glutamine. Each animal was implanted SC on the right flank, using a trochar and 1 cc syringe, with 5×10^6 UM-UC-3 cells, from in vitro passage 17, in a 0.2 mL suspension of 50% Matrigel and 50% serum free medium, without antibiotics. Bacterial cultures were performed on aliquots of the cells prepared for implantation.
Treatments were initiated on DPI 15.
(§2) Tumor size measurements were recorded twice weekly from the treatment initiation until the termination of the study.
(§3) Mean, standard deviation and standard error of the mean were determined for tumor volume for all animal groups at all assessments. Student's t test was performed on tumor volumes at each measurement day, including at the end of the study, to determine whether there were any statistically significant differences between combination treatment groups and single monotherapy treatment groups.

Hs746T tumors = assay type: in vivo, mice; details: mg/kg/day: PM00104 0.90 IV, cisplatin 5 IP, paclitaxel 10 IP
Source text: Female athymic nude mice (Harlan Sprague Dawley, Madison, Wis.) were utilized for all experiments. Animals were housed in ventilated rack caging with food and water ad libitum. The mice were acclimated for at least 5 days prior to tumor implantation with a tumor cell suspension. The Vehicle Control group contained 11 mice, groups 2-4 contained 7 mice and the rest of groups contained 8 mice.
The tumor model used in these studies was Hs746T cell line, which was obtained from the ATCC (Manassas, Va.).
Hs746T cells were grown in DMEM supplemented with 10% FBS, 1.5 g/L sodium bicarbonate, 4.5 g/L glucose, and 4 mM L-glutamine. Each animal was implanted SC on the right flank, using a trochar, with 5×10^6 Hs746T cells, from in vitro passage 18, in a 0.2 mL suspension of 50% Matrigel and 50% serum free medium, without antibiotics. Bacterial cultures were performed on aliquots of the cells prepared for implantation.
Treatments were initiated on DPI 16.
as §2, §3

[4] = test system: A-549 (lung cancer) cell line; test: IC50 determination, MIT (tetrazolium) assay, 72 h (Example 18); assay type: cell-based, human
Method: (§4) Before plating, cell cultures were trypsinized and cell number estimated using an automated flow cytometer.
(§5) Cells were harvested and seeded in 96 well microtiter plates at the appropriate cell density (5,000-10,000 cells) in 150 μL of media and incubated for 24 hours to allow the cells to attach before drug addition.
(§6) After the incubation period (72 hours), 50 μL of MIT solution was added to each microtiter well and incubated for further 8 hours at 37° C. The culture medium was then removed and 50 μl, of DMSO were added to dissolve the MIT crystals. Optical densities were read at 540 nm on spectrophotometer microplate reader.
(§7) IC50 values were calculated from an average of two to four assays for each of the test agents.

[5] = test system: NCI-H460 (lung cancer) cell line; test: as above; assay type: cell-based, human; details: NCI-H460, 72 hours of drug exposure
Method: as §4, §5, §6, §7

[6] = test system: NCI-H23 (lung cancer) cell line; test: as above; assay type: cell-based, human; details: NCI-H23, 72 hours of drug exposure
Method: NCI-H23 cells were grown in RPMI supplemented with 10% Fetal Bovine Serum (FBS), 1% penicillin/streptomycin and 2 mM L-glutamine.
as §4, §5, §6, §7

[7] = test system: MCF-7 (breast cancer) cell line; test: as above; assay type: cell-based; details: Homo sapiens, MCF7; MCF-7, 72 hours of drug exposure
Method: as §4, §5, §6, §7

[8] = test system: MDA-MB-231 (breast cancer) cell line; test: as above; assay type: cell-based; details: Homo sapiens; MDA-MB-231, 72 hours of drug exposure
Method: as §4, §5, §6, §7

Row | SMILES | % Inhibition (UM-UC-3 tumors; day 15) [%] | % T/C on day (UM-UC-3 tumors; day 15) [%] | % Inhibition (UM-UC-3 tumors; day 20) [%] | % T/C on day (UM-UC-3 tumors; day 20) [%] | % Inhibition (UM-UC-3 tumors; day 22) [%] | % T/C on day (UM-UC-3 tumors; day 22) [%] | % Inhibition (UM-UC-3 tumors; day 26) [%] | % Inhibition (UM-UC-3 tumors; day 29) [%] | % Inhibition (UM-UC-3 tumors; day 34) [%] | % Inhibition (UM-UC-3 tumors; day 40) [%] | % T/C on day (UM-UC-3 tumors; day 40) [%] | % Inhibition (UM-UC-3 tumors; day 43) [%] | % T/C on day (UM-UC-3 tumors; day 43) [%] | % Inhibition (Hs746T tumors; day 16) [%] | % T/C on day (Hs746T tumors; day 16) [%] | % Inhibition (Hs746T tumors; day 20) [%] | % T/C on day (Hs746T tumors; day 20) [%] | % Inhibition (Hs746T tumors; day 23) [%] | % T/C on day (Hs746T tumors; day 23) [%] | % Inhibition (Hs746T tumors; day 26) [%] | also measured
1 | O=c1[nH]cc(F)c(=O)[nH]1 [5-FU, 5-fluorouracil] | – | – | – | – | – | – | – | – | – | – | – | – | – | – | – | – | – | – | – | – | IC50 ([1]; Homo sapiens, read-out: IC50): 0.532 µg/mL (≈ 4.09 µM); IC50 ([2]; Homo sapiens, read-out: IC50): 0.434 µg/mL (≈ 3.34 µM); IC50 ([3]; Homo sapiens, read-out: IC50): 5.46 µg/mL (≈ 42 µM)
2 | N.N.[Cl][Pt][Cl] [Cisplatin, cisplatin] | −2.2 | 102.2 | 23.0 | 77.0 | 24.2 | 75.8 | 38.2 | 34.0 | 55.3 | 36.2 | 63.8 | 33.0 | 67.0 | 3.2 | 96.8 | 39.5 | 60.5 | 48.3 | 51.7 | 55.8 | IC50 [1]: 25.5 µg/mL; IC50 [2]: 25.6 µg/mL; IC50 [3]: 39.2 µg/mL; % T/C on day (UM-UC-3 tumors; day 26): 61.8%; % T/C on day (UM-UC-3 tumors; day 29): 66.0%; % T/C on day (UM-UC-3 tumors; day 34): 44.7%; % T/C on day (Hs746T tumors; day 26): 44.2%; % Inhibition (Hs746T tumors; day 29): 56.7%; % T/C on day (Hs746T tumors; day 29): 43.3%; % Inhibition (Hs746T tumors; day 33): 53.3%; % T/C on day (Hs746T tumors; day 33): 46.7%; % Inhibition (Hs746T tumors; day 36): 53.7%; % T/C on day (Hs746T tumors; day 36): 46.3%; pIC50 ([4]; A-549, 72 hours of drug exposure): 4.30; pIC50 [5]: 4.60; pIC50 [6]: 5.00
3 | Nc1ccn([C@@H]2O[C@H](CO)[C@@H](O)C2(F)F)c(=O)n1 [Gemcitabine, gemcitabine] | – | – | – | – | – | – | – | – | – | – | – | – | – | – | – | – | – | – | – | – | pIC50 ([4]; Homo sapiens, A549, 72 h): 9.30; pIC50 ([5]; Homo sapiens): 9.00; pIC50 ([6]; Homo sapiens): 9.55; pIC50 [7]: 8.89; pIC50 [8]: 7.62
4 | COc1c(C)cc2c(c1O)[C@@H]1[C@@H]3Cc4c(OC(C)=O)c(C)c5c(c4[C@H](CNC(=O)/C=C/c4cccc(C(F)(F)F)c4)N3[C@@H](O)[C@H](C2)N1C)OCO5 [PM00104] | −0.8 | 100.8 | 52.8 | 47.2 | 52.2 | 47.8 | 60.2 | 47.4 | 50.7 | 37.1 | 62.9 | 35.1 | 64.9 | 2.0 | 98.0 | 34.4 | 65.6 | 49.7 | 50.3 | 57.2 | IC50 ([1]; Homo sapiens, read-out: IC50): 0.00521 µg/mL (≈ 0.00734 µM); IC50 ([2]; Homo sapiens, read-out: IC50): 0.00371 µg/mL (≈ 0.00523 µM); IC50 ([3]; Homo sapiens, read-out: IC50): 0.00534 µg/mL (≈ 0.00752 µM); % T/C on day (UM-UC-3 tumors; day 26): 39.8%; % T/C on day (UM-UC-3 tumors; day 29): 50.4%; % T/C on day (UM-UC-3 tumors; day 34): 49.3%; % T/C on day (Hs746T tumors; day 26): 42.8%; % Inhibition (Hs746T tumors; day 29): 59.1%; % T/C on day (Hs746T tumors; day 29): 40.9%; % Inhibition (Hs746T tumors; day 33): 49.8%; % T/C on day (Hs746T tumors; day 33): 50.2%; % Inhibition (Hs746T tumors; day 36): 31.4%; % T/C on day (Hs746T tumors; day 36): 68.6%; pIC50 ([4]; Homo sapiens, A549, 72 h): 8.14; pIC50 ([5]; Homo sapiens): 8.14; pIC50 ([6]; Homo sapiens): 8.30; pIC50 [7]: 9.00; pIC50 [8]: 8.22
5 | CC(=O)O[C@H]1C(=O)[C@@]2(C)[C@H]([C@H](OC(=O)c3ccccc3)[C@]3(O)C[C@H](OC(=O)[C@H](O)[C@@H](NC(=O)c4ccccc4)c4ccccc4)C(C)=C1C3(C)C)[C@]1(OC(C)=O)CO[C@@H]1C[C@@H]2O [paclitaxel] | 1.3 | 98.7 | 46.9 | 53.1 | 54.0 | 46.0 | 61.4 | 64.6 | 60.5 | 47.5 | 52.5 | 41.0 | 59.0 | 3.6 | 96.4 | 36.7 | 63.3 | 52.3 | 47.7 | 65.3 | % Inhibition (Hs746T tumors; day 29): 78.6%; % T/C on day (Hs746T tumors; day 29): 21.4%; % Inhibition (Hs746T tumors; day 33): 76.8%; % T/C on day (Hs746T tumors; day 33): 23.2%; % Inhibition (Hs746T tumors; day 36): 69.9%; % T/C on day (Hs746T tumors; day 36): 30.1%; pIC50 ([4]; Homo sapiens, A549, 72 h): 7.33; pIC50 ([5]; Homo sapiens): 7.92; pIC50 ([6]; Homo sapiens): 7.33; pIC50 [7]: 7.15; pIC50 [8]: 8.22
